The values below come from PubChem BioAssay (NCI).

Some test systems named below: ACHN renal; DU-145 prostate; HT29 colon; IGROV1 ovarian; MDA-MB-435; RXF 393 renal; SK-MEL-2 melanoma; SK-OV-3 ovarian; NCI-H226 lung; RPMI-8226 leukemia.
What all share (test): inhibition of tumour cell growth, NCI panel, 48 h

Values joined by “and” are separate entries in the source; they are usually repeats but may differ in a detail not shown here. Equal entries are not always repeated.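 Where inhibition never reached the appropriate level, the endpoint shown equals the highest concentration tested. Otherwise, values were interpolated linearly from a five-concentration, 48-hour dose response in 96-well plates. GI50 is the concentration that inhibits growth by half. TGI is the concentration that stops growth completely.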

Turning to `COc1ccc(-c2c(/C=N/OCC(=O)O)c3sc4ccccc4n3c2/C=N/OCC(=O)O)cc1`, the TGI with ACHN renal, in the assay with DU-145 prostate, in the assay on HT29 colon, in the assay on IGROV1 ovarian, with MDA-MB-435 and in the assay with RXF 393 renal was greater than 50 µM in each case. In addition, the TGI in the assay with SK-MEL-2 melanoma and with SK-OV-3 ovarian was greater than 50 µM throughout.

As to `CCOC(=O)C1=C(N2CCCC2)C(=O)C(C(=O)OCC)C1` (stereo unspecified), the TGI in the assay with ACHN renal, in the assay with IGROV1 ovarian, in the assay on MDA-MB-435, in the assay on NCI-H226 lung, with RPMI-8226 leukemia and in the assay with RXF 393 renal was greater than 100 µM throughout. The TGI in the assay with SK-MEL-2 melanoma and in the assay with SK-OV-3 ovarian was greater than 100 µM throughout.

With `CSCSCC(CO)NC(=O)/C=C\c1c(C)[nH]c(=O)[nH]c1=O` (stereo unspecified), the TGI was 270 µM in the assay on HT29 colon; 320 µM in the assay on IGROV1 ovarian; 309 µM in the assay on NCI-H226 lung; 239 µM in the assay on RPMI-8226 leukemia; 249 µM with RXF 393 renal; 136 µM with SK-MEL-2 melanoma. Further, the TGI with SK-OV-3 ovarian was 74 µM. In the assay with NCI-H226 lung, the GI50 was 49.8 µM.

Regarding `COc1ccc(-c2nc(-c3cnccn3)n(C/C=C/c3ccccc3)n2)cc1`, the TGI in the assay on DU-145 prostate, with HT29 colon, in the assay with IGROV1 ovarian, with MDA-MB-435, in the assay with RPMI-8226 leukemia and in the assay with SK-OV-3 ovarian was greater than 100 µM each time.

Regarding `O=C(O)C12C=CC(C1)c1ccccc12` (stereo unspecified), the TGI in the assay with ACHN renal, in the assay on HT29 colon, with IGROV1 ovarian, in the assay with NCI-H226 lung, in the assay with RPMI-8226 leukemia and in the assay on SK-OV-3 ovarian was greater than 100 µM throughout.

On to `COc1cccc(C2C(C#N)=C(N)Oc3cc(OCCCCCC[P+](c4ccccc4)(c4ccccc4)c4ccccc4)ccc32)c1` (stereo unspecified), for which the GI50 in the assay on ACHN renal was 2.04 µM; in the assay with DU-145 prostate, 0.95 µM; in the assay with HT29 colon, 0.613 µM; with MDA-MB-435, 0.357 µM; with RPMI-8226 leukemia it was 0.194 µM; in the assay on SK-OV-3 ovarian, 1.41 µM. Moreover, the TGI was 4.92 µM in the assay with ACHN renal; 2.21 µM in the assay on DU-145 prostate; 3.67 µM with HT29 colon; 1.31 µM with MDA-MB-435; 0.659 µM with RPMI-8226 leukemia; 3.26 µM in the assay on SK-OV-3 ovarian.

On to `CCC1OC2(C)CC(C#N)(C#N)C1(C#N)C(=N)O2` (stereo unspecified), for which the TGI in the assay on ACHN renal, in the assay on DU-145 prostate, with IGROV1 ovarian, in the assay with MDA-MB-435, with RXF 393 renal and with SK-MEL-2 melanoma was greater than 100 µM in each case. The same molecule yielded a TGI with SK-OV-3 ovarian greater than 100 µM.

`CC1(C)CC(=O)C2=C(C1)NC(=S)C(C#N)C2c1ccccc1` (stereo unspecified): the TGI in the assay with ACHN renal, with DU-145 prostate, in the assay with HT29 colon, in the assay with IGROV1 ovarian, in the assay on MDA-MB-435 and with NCI-H226 lung was greater than 100 µM throughout. Further, the TGI in the assay with RXF 393 renal, in the assay on SK-MEL-2 melanoma and in the assay with SK-OV-3 ovarian was greater than 100 µM in each case.

Take `O=C1OC2(CCCCC2)C(Oc2ccc(Cl)cc2)=C1F`: the TGI with ACHN renal, in the assay with DU-145 prostate, in the assay on HT29 colon, in the assay with IGROV1 ovarian, in the assay on MDA-MB-435 and in the assay with RPMI-8226 leukemia was greater than 100 µM in each case. Further, the values for the TGI in the assay with RXF 393 renal, in the assay with SK-MEL-2 melanoma and in the assay on SK-OV-3 ovarian were greater than 100 µM, 61.8 µM and greater than 100 µM, respectively.

On to `CCCCn1c(-c2ccccc2)cs/c1=N\NC(=O)Cn1c(C)nc2ccccc21`, for which the TGI with ACHN renal is greater than 100 µM; in the assay on HT29 colon it was greater than 100 µM; in the assay with IGROV1 ovarian it was greater than 100 µM; in the assay on NCI-H226 lung it was greater than 100 µM; with RPMI-8226 leukemia, greater than 100 µM; in the assay on RXF 393 renal, 94.1 µM. Further, the TGI with SK-MEL-2 melanoma and in the assay on SK-OV-3 ovarian was greater than 100 µM throughout.

With `Cc1c2cc[n+](C)cc2c(C)c2c1[nH]c1ccc(OCC(F)(F)F)cc12`, the GI50 in the assay on ACHN renal was 12 µM and > 100 µM; with NCI-H226 lung, 0.581 µM; with RPMI-8226 leukemia, 4.27 µM and 23.7 µM; with RXF 393 renal, greater than 100 µM; with SK-MEL-2 melanoma, 5.9 µM. The TGI with ACHN renal is greater than 100 µM; with HT29 colon it was 8.14 µM and > 55.1 µM; in the assay with IGROV1 ovarian, greater than 100 µM; with NCI-H226 lung, 1.69 µM and 3.75 µM; in the assay with RPMI-8226 leukemia it was 43 µM and > 88 µM; in the assay on RXF 393 renal, greater than 100 µM. The TGI in the assay on SK-MEL-2 melanoma and in the assay with SK-OV-3 ovarian was greater than 100 µM each time.

Regarding `COc1c(NC(C)=O)c2ccccc2c2ccccc12`, the TGI with ACHN renal, with DU-145 prostate, with HT29 colon, in the assay with IGROV1 ovarian, in the assay with MDA-MB-435 and with NCI-H226 lung was greater than 100 µM throughout. Moreover, the TGI with RXF 393 renal and in the assay on SK-MEL-2 melanoma was greater than 100 µM in each case.

For the molecule `CC(=O)N1CCOC12N=NC(C)(C)O2` (stereo unspecified), the TGI in the assay on ACHN renal, with DU-145 prostate, in the assay with HT29 colon, in the assay with IGROV1 ovarian, in the assay with MDA-MB-435 and in the assay on RPMI-8226 leukemia was greater than 100 µM in each case. Besides, the TGI with SK-MEL-2 melanoma and in the assay on SK-OV-3 ovarian was greater than 100 µM each time.

For the molecule `C/C(N=NS(=O)(=O)c1c(C)cc(C)cc1C)=C1\C=CC=CN1O`, the TGI in the assay on ACHN renal, in the assay on HT29 colon, in the assay with IGROV1 ovarian, with RPMI-8226 leukemia and in the assay with SK-OV-3 ovarian was greater than 100 µM each time.

On to `Cc1cc(NS(=O)(=O)c2ccc(Nc3c4ccccc4nc4c(C(=O)NC(CO)(CO)CO)cccc34)cc2)no1`, for which the TGI was greater than 100 µM in the assay on ACHN renal; greater than 100 µM with DU-145 prostate; greater than 100 µM with HT29 colon; greater than 100 µM in the assay with IGROV1 ovarian; greater than 100 µM with MDA-MB-435; 63.9 µM in the assay with RPMI-8226 leukemia. Besides, the TGI in the assay with SK-MEL-2 melanoma was 48.5 µM; in the assay with SK-OV-3 ovarian, greater than 100 µM.

On to `Nc1ccnc2c1ncn2[C@H]1C[C@H](O)[C@@H](CO)O1`, for which the TGI with ACHN renal, with DU-145 prostate, in the assay on HT29 colon, with IGROV1 ovarian, in the assay on MDA-MB-435 and in the assay on NCI-H226 lung was greater than 100 µM throughout. Besides, the TGI with RXF 393 renal and in the assay with SK-MEL-2 melanoma was greater than 100 µM in each case.
